Each block holds one compound with its values, some of them ahead of it.
How the values were obtained:
[1] = biological target: T1, Serine/threonine-protein kinase Nek9 (Homo sapiens) (UniProt Q8TD19); assay: Selectivity interaction (Ambit KINOMEscan and KiNATiv profiling in Jurkat cells) EUB0000090b NEK9; assay type: cell-based; settings: at 1 µM
T1 sequence (whole entry): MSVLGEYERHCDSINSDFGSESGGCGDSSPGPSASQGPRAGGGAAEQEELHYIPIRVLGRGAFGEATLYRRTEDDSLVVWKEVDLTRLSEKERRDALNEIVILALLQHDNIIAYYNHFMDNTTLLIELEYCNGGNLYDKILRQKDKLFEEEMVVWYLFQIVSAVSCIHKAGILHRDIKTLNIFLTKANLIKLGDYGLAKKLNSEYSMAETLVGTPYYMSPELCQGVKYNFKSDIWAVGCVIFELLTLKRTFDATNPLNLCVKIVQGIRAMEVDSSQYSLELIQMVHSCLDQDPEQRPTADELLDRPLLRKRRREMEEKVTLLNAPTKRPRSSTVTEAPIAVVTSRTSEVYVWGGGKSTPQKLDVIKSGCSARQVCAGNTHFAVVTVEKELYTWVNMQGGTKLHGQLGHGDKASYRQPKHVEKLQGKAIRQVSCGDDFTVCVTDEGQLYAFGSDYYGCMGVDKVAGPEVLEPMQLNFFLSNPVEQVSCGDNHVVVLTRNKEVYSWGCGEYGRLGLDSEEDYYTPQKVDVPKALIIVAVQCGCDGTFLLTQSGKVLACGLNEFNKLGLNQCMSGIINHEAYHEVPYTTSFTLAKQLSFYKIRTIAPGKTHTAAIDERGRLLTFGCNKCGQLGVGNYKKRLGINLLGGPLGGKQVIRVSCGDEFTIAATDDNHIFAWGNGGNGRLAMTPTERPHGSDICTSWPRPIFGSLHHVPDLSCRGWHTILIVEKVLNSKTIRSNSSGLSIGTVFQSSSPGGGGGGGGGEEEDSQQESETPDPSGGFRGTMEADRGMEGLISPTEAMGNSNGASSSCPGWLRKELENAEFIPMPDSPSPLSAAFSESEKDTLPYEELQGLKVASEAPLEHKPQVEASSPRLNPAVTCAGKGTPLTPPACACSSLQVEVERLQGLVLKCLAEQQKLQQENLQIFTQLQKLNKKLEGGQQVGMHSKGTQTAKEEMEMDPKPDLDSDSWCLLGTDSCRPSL

[2] = biological target: Ribosomal protein S6 kinase alpha-2 (Homo sapiens) (UniProt Q15349); assay: Selectivity interaction (ActivX KiNativ screen (kinase selectivity in THP-1 cell lysates)) EUB0000639a RPS6KA2; assay type: subcellular; settings: lysate
[3] = biological target: T2, Mitogen-activated protein kinase kinase kinase 15 (Homo sapiens) (UniProt Q6ZN16); assay: Selectivity interaction (KinomeScan (DiscoverX)) EUB0000618a MAP3K15; settings: at 10 µM
T2 sequence (whole entry): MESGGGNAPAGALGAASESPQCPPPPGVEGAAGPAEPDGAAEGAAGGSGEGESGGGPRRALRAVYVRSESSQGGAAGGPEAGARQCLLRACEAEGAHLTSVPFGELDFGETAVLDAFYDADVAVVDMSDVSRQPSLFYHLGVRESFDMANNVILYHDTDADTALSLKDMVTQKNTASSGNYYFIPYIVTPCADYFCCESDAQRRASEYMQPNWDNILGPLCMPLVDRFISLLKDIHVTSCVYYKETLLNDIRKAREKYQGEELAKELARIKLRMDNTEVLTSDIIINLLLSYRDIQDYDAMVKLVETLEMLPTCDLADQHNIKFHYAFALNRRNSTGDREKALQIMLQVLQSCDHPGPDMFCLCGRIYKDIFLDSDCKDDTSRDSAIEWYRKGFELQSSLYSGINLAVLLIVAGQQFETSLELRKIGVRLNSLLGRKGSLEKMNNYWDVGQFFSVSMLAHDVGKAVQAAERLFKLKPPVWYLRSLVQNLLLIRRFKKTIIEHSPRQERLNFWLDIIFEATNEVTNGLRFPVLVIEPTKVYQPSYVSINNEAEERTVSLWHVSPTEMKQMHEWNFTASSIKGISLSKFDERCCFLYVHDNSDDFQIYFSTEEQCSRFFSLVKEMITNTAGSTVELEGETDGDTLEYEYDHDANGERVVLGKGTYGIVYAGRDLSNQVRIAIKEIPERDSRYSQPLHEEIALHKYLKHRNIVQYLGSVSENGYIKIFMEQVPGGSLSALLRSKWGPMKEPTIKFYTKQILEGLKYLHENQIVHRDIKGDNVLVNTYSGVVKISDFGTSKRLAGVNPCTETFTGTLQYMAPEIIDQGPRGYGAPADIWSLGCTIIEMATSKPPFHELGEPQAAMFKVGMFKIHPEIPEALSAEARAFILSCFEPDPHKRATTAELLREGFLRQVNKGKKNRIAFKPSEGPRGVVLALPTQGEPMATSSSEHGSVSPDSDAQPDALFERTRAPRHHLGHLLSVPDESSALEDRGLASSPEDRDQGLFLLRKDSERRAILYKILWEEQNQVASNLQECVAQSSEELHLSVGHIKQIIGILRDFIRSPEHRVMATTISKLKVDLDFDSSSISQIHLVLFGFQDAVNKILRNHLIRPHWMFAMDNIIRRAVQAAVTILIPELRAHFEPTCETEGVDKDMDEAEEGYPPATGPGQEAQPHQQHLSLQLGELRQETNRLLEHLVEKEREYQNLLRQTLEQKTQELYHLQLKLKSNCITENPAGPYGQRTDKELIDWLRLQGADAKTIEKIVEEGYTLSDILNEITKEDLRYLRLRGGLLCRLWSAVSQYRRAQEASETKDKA

Chain of Ribosomal protein S6 kinase alpha-2 (Homo sapiens) (Q15349 whole entry): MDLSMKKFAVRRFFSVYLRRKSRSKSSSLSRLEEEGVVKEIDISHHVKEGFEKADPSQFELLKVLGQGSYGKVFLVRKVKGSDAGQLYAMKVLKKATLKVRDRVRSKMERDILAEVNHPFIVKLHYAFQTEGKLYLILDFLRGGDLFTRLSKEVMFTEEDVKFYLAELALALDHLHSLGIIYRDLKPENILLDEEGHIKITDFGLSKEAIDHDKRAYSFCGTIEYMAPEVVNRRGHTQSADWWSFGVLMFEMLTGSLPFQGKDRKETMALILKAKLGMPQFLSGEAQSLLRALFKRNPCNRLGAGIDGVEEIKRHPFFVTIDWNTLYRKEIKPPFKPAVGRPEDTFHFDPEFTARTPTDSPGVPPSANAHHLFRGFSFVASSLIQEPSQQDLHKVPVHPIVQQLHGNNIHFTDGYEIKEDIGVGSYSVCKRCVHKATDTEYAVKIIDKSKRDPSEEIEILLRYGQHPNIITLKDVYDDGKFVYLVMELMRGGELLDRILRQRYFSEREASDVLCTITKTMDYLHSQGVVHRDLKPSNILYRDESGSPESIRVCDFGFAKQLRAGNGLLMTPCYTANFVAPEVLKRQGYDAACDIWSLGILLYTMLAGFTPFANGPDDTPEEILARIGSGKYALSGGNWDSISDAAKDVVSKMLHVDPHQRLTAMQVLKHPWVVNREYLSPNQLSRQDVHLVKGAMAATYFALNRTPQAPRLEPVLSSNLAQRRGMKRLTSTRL

SMILES: CN(C)C/C=C/C(=O)Nc1ccc(C(=O)N2CCCC(Nc3ncc(Cl)c(-c4c[nH]c5ccccc45)n3)C2)cc1 (configuration not stated)
% of control [1]: 100%

% of inhibition ([2]; at 0.01 µM): 16.9%
% of inhibition ([2]; at 0.04 µM): 12.4%
% of inhibition ([2]; at 0.2 µM): 10.3%
% of inhibition ([2]; at 1 µM): 8.6%
% of inhibition ([2]; at 5 µM): 11.7%
SMILES: CC[C@@H]1[C@H](F)C(=O)N[C@@H]1COc1nccc2cc(C(N)=O)c(OC)cc12 [ZIMLOVISERTIB]

SMILES: O[C@H]1CC[C@H](Nc2ncc3nc(Nc4c(F)cc(F)cc4F)n([C@H]4CCOC4)c3n2)CC1
% of control [3]: 100%

Reference: ChEMBL document CHEMBL5465560, “Selectivity Literature for EUbOPEN Chemogenomic Library” (2024)
